Toxic doses and inconclusive results are not listed. Rule as the data show it: active = T/C of 150% or more; inactive = T/C below 125%.
System: L1210 leukemia ip in BDF1 mice, survival T/C
Test: NCI In Vivo Anticancer Drug Screen. Data for tumor model L1210 Leukemia (intraperitoneal) in B6D2F1 (BDF1) mice
Details: endpoint: mean survival time, higher = longer survival
Procedure, shortened: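 Transplanted-tumor mice were given test agent; controls received vehicle only. Survival readings from the two groups were divided (treated over control).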

[1] = dose: 100.0 mg/kg/injection, schedule: Q01DX001 (ip), vehicle: carboxymethylcellulose (CMC)
[2] = dose: 200.0 mg/kg/injection, schedule: Q01DX001 (ip), vehicle: carboxymethylcellulose (CMC)
[3] = dose: 25.0 mg/kg/injection, schedule: Q01DX009 (ip), vehicle: Klucel (hydroxypropylcellulose) (HPC)
[4] = dose: 50.0 mg/kg/injection, schedule: Q01DX009 (ip), vehicle: Klucel (hydroxypropylcellulose) (HPC)
[5] = dose: 100.0 mg/kg/injection, schedule: Q01DX009 (ip), vehicle: Klucel (hydroxypropylcellulose) (HPC)
[6] = dose: 100.0 mg/kg/injection, schedule: Q04DX002 (ip), vehicle: Klucel (hydroxypropylcellulose) (HPC)
[7] = dose: 200.0 mg/kg/injection, schedule: Q04DX002 (ip), vehicle: Klucel (hydroxypropylcellulose) (HPC)
[8] = dose: 400.0 mg/kg/injection, schedule: Q01DX009 (ip), vehicle: Klucel (hydroxypropylcellulose) (HPC)
[9] = dose: 400.0 mg/kg/injection, schedule: Q04DX002 (ip), vehicle: Klucel (hydroxypropylcellulose) (HPC)
[10] = dose: 100.0 mg/kg/injection, schedule: Q04DX003 (ip), vehicle: Klucel (hydroxypropylcellulose) (HPC)
[11] = dose: 200.0 mg/kg/injection, schedule: Q01DX009 (ip), vehicle: Klucel (hydroxypropylcellulose) (HPC)
[12] = dose: 200.0 mg/kg/injection, schedule: Q04DX003 (ip), vehicle: Klucel (hydroxypropylcellulose) (HPC)
[13] = dose: 400.0 mg/kg/injection, schedule: Q04DX003 (ip), vehicle: Klucel (hydroxypropylcellulose) (HPC)
[14] = dose: 200.0 mg/kg/injection, schedule: Q04DX002 (ip), vehicle: saline with Tween-80
[15] = dose: 400.0 mg/kg/injection, schedule: Q04DX002 (ip), vehicle: saline with Tween-80
[16] = dose: 100.0 mg/kg/injection, schedule: Q01DX001 (ip), vehicle: saline
[17] = dose: 200.0 mg/kg/injection, schedule: Q01DX001 (ip), vehicle: saline
[18] = dose: 100.0 mg/kg/injection, schedule: Q01DX001 (ip), vehicle: saline with Tween-80
[19] = dose: 200.0 mg/kg/injection, schedule: Q01DX001 (ip), vehicle: saline with Tween-80
[20] = dose: 400.0 mg/kg/injection, schedule: Q01DX001 (ip), vehicle: saline with Tween-80
[21] = dose: 10.0 mg/kg/injection, schedule: Q01DX001 (ip), vehicle: saline
[22] = dose: 20.0 mg/kg/injection, schedule: Q01DX001 (ip), vehicle: saline

Measured: T/C

c1ccn2nncc2c1
inactive: [1] 103 % of control | [2] 90 % of control

CC/C(=N\N=C(/CC)c1ccccc1)c1ccccc1
inactive: [3] 98 % of control | [4] 101 % of control | [5] 98 % of control | [6] 96 % of control | [7] 107 % of control | [8] 86 % of control | [9] 91 % of control

COc1cc(OC)c(NC(=O)c2cc3ccccc3cc2O)cc1Cl
inactive: [5] 96 % of control | [10] 101 % of control | [11] 101 % of control | [12] 101 % of control | [8] 96 % of control | [13] 111 % of control

CC(=[N-])CC(C)=O.CC(=[N-])CC(C)=O.[Cu+2]
inactive: dose: 6.25 mg/kg/injection, schedule: Q04DX003 (ip), vehicle: saline with Tween-80 88 % of control | dose: 12.5 mg/kg/injection, schedule: Q04DX003 (ip), vehicle: saline with Tween-80 89 % of control

O=NN(Cc1ccccc1)P(=O)(O)Oc1ccccc1
inactive: dose: 4.5 mg/kg/injection, schedule: Q01DX001 (ip), vehicle: saline 100 % of control | dose: 9.0 mg/kg/injection, schedule: Q01DX001 (ip), vehicle: saline 97 % of control | dose: 13.0 mg/kg/injection, schedule: Q01DX001 (ip), vehicle: saline 100 % of control | dose: 26.0 mg/kg/injection, schedule: Q01DX001 (ip), vehicle: saline 97 % of control | dose: 40.0 mg/kg/injection, schedule: Q01DX001 (ip), vehicle: saline 114 % of control | dose: 60.0 mg/kg/injection, schedule: Q01DX001 (ip), vehicle: saline 101 % of control | dose: 93.0 mg/kg/injection, schedule: Q01DX001 (ip), vehicle: saline 97 % of control | dose: 187.0 mg/kg/injection, schedule: Q01DX001 (ip), vehicle: saline 94 % of control | dose: 250.0 mg/kg/injection, schedule: Q01DX001 (ip), vehicle: saline 95 % of control | dose: 375.0 mg/kg/injection, schedule: Q01DX001 (ip), vehicle: saline 92 % of control | dose: 500.0 mg/kg/injection, schedule: Q01DX001 (ip), vehicle: saline 100 % of control | dose: 750.0 mg/kg/injection, schedule: Q01DX001 (ip), vehicle: saline 95 % of control

COC1OC(CCl)C(Cl)C(OS(=O)(=O)c2ccc(C)cc2)C1OS(=O)(=O)c1ccc(C)cc1 (stereo not drawn)
inactive: [6] 100 % of control | dose: 100.0 mg/kg/injection, schedule: Q04DX002 (ip), vehicle: saline with Tween-80 90 % of control | [14] 101 % of control | [9] 94 % of control | [15] 93 % of control

C=COCCCCCCCCCCCC(CCCCCC)OC=C (stereo not drawn)
inactive: [6] 94 % of control | [7] 105 % of control

O=C(CC(c1ccccc1)N1CCN(c2ccccc2)CC1)c1ccc(F)cc1 (stereo not drawn)
inactive: dose: 12.5 mg/kg/injection, schedule: Q01DX009 (ip), vehicle: Klucel (hydroxypropylcellulose) (HPC) 88 % of control | [3] 93 % of control | [4] 93 % of control | dose: 200.0 mg/kg/injection, schedule: Q01DX009 (ip), vehicle: gum acacia 87 % of control | dose: 400.0 mg/kg/injection, schedule: Q01DX009 (ip), vehicle: gum acacia 89 % of control

Cc1ccc(C2(C)CC/C(=N\NC(=O)c3ccccc3)c3cc(C)c(C)cc32)cc1C (stereo not drawn)
inactive: [16] 97 % of control | [17] 98 % of control | dose: 400.0 mg/kg/injection, schedule: Q01DX001 (ip), vehicle: saline 104 % of control

CCCCCC#CC(=O)O
inactive: [5] 105 % of control | [10] 98 % of control | [11] 106 % of control | [12] 98 % of control | [8] 90 % of control | [13] 109 % of control

O=[N+]([O-])c1ccc(Cl)c(OCCOc2ccc(S(=O)(=O)F)cc2)c1
inactive: [18] 96 % of control | [19] 87 % of control | [20] 90 % of control

O=c1[nH]cnc2c1c(Br)cn2C1OC(CO)C(O)C1O (stereo not drawn)
inactive: [1] 110 % of control | [2] 112 % of control | dose: 400.0 mg/kg/injection, schedule: Q01DX001 (ip), vehicle: carboxymethylcellulose (CMC) 121 % of control

CC(=O)/C(=N\N=C(N)N)c1ccccc1
inactive: dose: 1.88 mg/kg/injection, schedule: Q01DX Z (ip), vehicle: saline 102 % of control | dose: 3.75 mg/kg/injection, schedule: Q01DX Z (ip), vehicle: saline 93 % of control | dose: 3.75 mg/kg/injection, schedule: Q01DX Z (oral), vehicle: other 90 % of control | dose: 7.5 mg/kg/injection, schedule: Q01DX Z (ip), vehicle: saline 98 % of control | dose: 7.5 mg/kg/injection, schedule: Q01DX Z (oral), vehicle: other 98 % of control | dose: 15.0 mg/kg/injection, schedule: Q01DX Z (oral), vehicle: other 96 % of control

COC(=O)/C(C)=C/CC(C)C(=O)OC (stereo not drawn)
inactive: dose: 50.0 mg/kg/injection, schedule: Q01DX001 (ip), vehicle: saline 102 % of control | [16] 96 % of control | [17] 105 % of control

Cc1cccc[n+]1Cc1cc(=O)[nH]c(=O)[nH]1
inactive: dose: 100.0 mg/kg/injection, schedule: Q04DX003 (ip), vehicle: saline 101 % of control | dose: 200.0 mg/kg/injection, schedule: Q04DX003 (ip), vehicle: saline 98 % of control | dose: 400.0 mg/kg/injection, schedule: Q04DX003 (ip), vehicle: saline 98 % of control

CNC(=S)N/N=C(\C=N\NC(=S)NC)c1ccc(C)cc1
inactive: [6] 106 % of control | [7] 100 % of control | [9] 103 % of control

COC1OC(COC(c2ccccc2)(c2ccccc2)c2ccccc2)C(O)C(O)C1NC(C)=O (stereo not drawn)
inactive: dose: 100.0 mg/kg/injection, schedule: Q01DX001 (ip), vehicle: Klucel (hydroxypropylcellulose) (HPC) 96 % of control | dose: 200.0 mg/kg/injection, schedule: Q01DX001 (ip), vehicle: Klucel (hydroxypropylcellulose) (HPC) 96 % of control | dose: 400.0 mg/kg/injection, schedule: Q01DX001 (ip), vehicle: Klucel (hydroxypropylcellulose) (HPC) 101 % of control

C/C(=N\NC(N)=S)C1OCCc2ccccc21 (stereo not drawn)
inactive: dose: 5.0 mg/kg/injection, schedule: Q01DX001 (ip), vehicle: saline 105 % of control | [21] 90 % of control | [22] 98 % of control

O=C(O)Cc1ccc(Cl)cc1
inactive: dose: 75.0 mg/kg/injection, schedule: Q04DX003 (ip), vehicle: saline with Tween-80 93 % of control | [18] 98 % of control | dose: 150.0 mg/kg/injection, schedule: Q04DX003 (ip), vehicle: saline with Tween-80 96 % of control | [19] 95 % of control | dose: 300.0 mg/kg/injection, schedule: Q04DX003 (ip), vehicle: saline with Tween-80 87 % of control | [20] 91 % of control

CC(=O)Nc1ccc(CCc2nc(N)nc(Cl)c2-c2ccc(Cl)cc2)cc1
inactive: dose: 75.0 mg/kg/injection, schedule: Q01DX001 (ip), vehicle: saline 92 % of control | dose: 150.0 mg/kg/injection, schedule: Q01DX001 (ip), vehicle: saline 87 % of control | dose: 300.0 mg/kg/injection, schedule: Q01DX001 (ip), vehicle: saline 90 % of control

CC(C)(C)c1cc(N)cc(C(C)(C)C)c1O
inactive: [14] 87 % of control | [15] 90 % of control

CCCCCCCC/C=C/CCCCCCCCC1=NCCN1CCO
inactive: dose: 2.5 mg/kg/injection, schedule: Q01DX009 (ip), vehicle: saline 104 % of control | dose: 5.0 mg/kg/injection, schedule: Q01DX009 (ip), vehicle: saline 93 % of control | [21] 90 % of control | dose: 10.0 mg/kg/injection, schedule: Q01DX009 (ip), vehicle: saline 104 % of control | [22] 92 % of control

Source: PubChem BioAssay AID248 (DTP/NCI, 2004)
